Measurements: US12234288B2, “Immunogenic arginase 2 polypeptides” (IO Biotech ApS, priority 2018, dated 2025)

Test system: ARG2-specific T cells
Test: ARG2-specific CD4+ T cell culture: IFNy ELISPOT and intracellular cytokine staining toward peptide or target cells
Assay type: cell-based, human
Details: for recognition of peptide-pulsed cells by ARG2-specific T cells: IFNy ELISPOT, FIG. 17A; for specificity of the ARG2-specific T cell culture to peptide: intracellular cytokine staining for TNFα and IFNy and IFNy ELISPOT, FIG. 16A/B
Procedure: ELISPOT assays with ARG2-specific T cells (effector cells) and various immune or cancer cells as target cells (target cells) were setup by placing 1-5×10^4 effector cells (as indicated) and 1-2.5×10^4 target cells (as indicated) in the bottom of an ELISPOT well. Peptide pulsing of target cells were performed by incubation of cells with 20 μM peptide for lhr followed by two washes to remove unbound peptide. These cells served as positive control. Effector cells plated without target cells served as negative control. All conditions were setup in triplicates or quadruplicates.
Intracellular staining of cell cultures was performed on PBMCs after one week of ARG2-derived peptide stimulation in vitro. For the assay, 9×10^5 PBMCs were re-stimulated with ARG2-derived peptides (or incubated with no peptide as a control) for 5 hours in the presence of BD GolgiPlug™ (added after the first hour of peptide stimulation). Stimulated cells were stained with fluorescently labeled antibodies for surface markers (CD3, CD4, CD8) and thereafter permeabilized by using Fixation/Permeabilization and Permeabilization Buffer (eBioscience, cat. 00-{5123-43), according to manufacturer's instructions. Permeabilized cells were then stained with fluorochrome-labeled antibodies for IFNγ and TNFα. Flow cytometry analysis was performed on a FACSCanto™ II (BD Biosciences). Antibodies used: IFNγ-APC, TNFα-BV421, CD4-PerCP, CD8-FITC, CD3-APC-H7, CD4-FITC, CD8-PerCP, and dead cells stain-FVS510 (all from BD Biosciences) according to manufacturer's instructions. For intracellular cytokine staining to detect cytokine production of ARG2-specific T cells in response to target cells, 5×10^5 ARG2 specific cells were incubated with 2.5×10^5 target cells for 5 hours with GolgiPlug™ added after the first hour.
The ARG2-specific T cell culture was established by initial stimulation of PMBCs from a prostate cancer patient with irradiated ARG2-1 loaded autologous mature dendritic cells. The following day IL-12 (20 U/ml) and IL-7 (40 U/ml) was added. PBMCs were restimulated every 8 days with ARG2-1 peptide loaded autologous DCs followed by addition of IL-2 (120 U/ml) the next day. ARG2-specific T cells were enriched using IFNy enrichment kit (MiltenyiBiotec) after 4 stimulations. Cells were expanded and ARG2-specific T cells were further enriched using CD4+ enrichment kit (MiltenyiBiotec).
For mRNA, DCs or cancer cells were transfected with ARG1-DC-LAMP mRNA, ARG2-DC-LAMP mRNA or control mRNA encoding eGFP using electroporation parameters as previously described. Briefly, cells were washed twice in Opti-MEM medium (Thermo Scientific) and adjusted to a final cell concentration of 9-12×10^6 cells/ml. 350 μl cell suspension was preincubated on ice for 5 minutes before addition of 10 μg mRNA. The cell suspension was then quickly transferred into a 2-mm (cancer cells) or 4-mm (DCs) gap electroporation cuvette and electroporated (ref: OM paper). After electroporation, cells were quickly transferred to a dish with pre-warmed medium and incubated in humidified atmosphere with 5% CO2 before use for different experimental analysis. mRNA transfected cells were rested for 1 hr before they were setup in ELISPOT assay or rested overnight before set up in intracellular cytokine staining assay. Electroporation efficiency was determined 24 hours post transfection by FACS analysis of the GFP transfected cells. […]

| Sequence | recognition of peptide-pulsed cells by ARG2-specific T cells (MONO-MAC-1 cells) | recognition of peptide-pulsed cells by ARG2-specific T cells (OCI-AML2 cells) | recognition of peptide-pulsed cells by ARG2-specific T cells (THP-1 cells) | specificity of the ARG2-specific T cell culture to peptide |
| --- | --- | --- | --- | --- |
| LQTRVHSILKKSVHSVAVIG (listed as Homo sapiens) [ARG2_1, polypeptide derived from human Arginase2, aa11-30] | effectively recognized | effectively recognized | effectively recognized | highly specific |
| SLRGSLSRLLQTRVHSILKKSVHSVAVIGAPFS (listed as Homo sapiens) [A2L2, long ARG2 peptide, aa2-34, 33-mer] |  |  |  | highly specific |
